These results are taken from paper PMC7076352 (Pharmaceutics, 2020).

The target in one series is T1, CYP1A2 (Rattus norvegicus, UniProt P04799).
T1 sequence (P04799 1-513): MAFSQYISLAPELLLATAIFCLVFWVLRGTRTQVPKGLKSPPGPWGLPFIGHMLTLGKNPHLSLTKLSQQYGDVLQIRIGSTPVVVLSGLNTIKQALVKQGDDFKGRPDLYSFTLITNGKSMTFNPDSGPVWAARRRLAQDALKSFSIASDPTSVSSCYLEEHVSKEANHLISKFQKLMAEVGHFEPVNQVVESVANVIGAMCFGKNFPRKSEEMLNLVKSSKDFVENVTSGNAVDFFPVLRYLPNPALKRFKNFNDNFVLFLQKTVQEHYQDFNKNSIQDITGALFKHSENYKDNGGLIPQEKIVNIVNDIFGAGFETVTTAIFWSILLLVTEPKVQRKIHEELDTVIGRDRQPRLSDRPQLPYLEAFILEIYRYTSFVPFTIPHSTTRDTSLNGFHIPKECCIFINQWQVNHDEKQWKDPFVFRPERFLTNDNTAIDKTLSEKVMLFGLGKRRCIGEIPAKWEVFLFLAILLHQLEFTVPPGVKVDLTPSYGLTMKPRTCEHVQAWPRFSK
Put plainly: In vitro cocktail CYP450 activity assay in rat liver microsomes, CYP1A2 (phenacetin probe). To be noted: IC50 CYP1A2, single components; RLM 0.2 mg/mL, 15 min, triplicate, mean ± SD. The protocol: (§1) (OHBUP-[D6]) and 5 nM 4′-hydroxydiclofenac-[^13C6] (OHDIC-[^13C6]) as internal standards (ISs). […]
(§2) standard addition experiments. Each group included four concentration levels. For the PK […]
(§3) The probe compounds, viz. […]
(§4) chosen after incubating all the recruited substrates. In order to assure the linear relationship […]
(§5) The incubation system was also optimized in terms of substrate concentrations. The substrates concentrations of […]
(In general: Liver microsomes are a subcellular fraction often used to study metabolism.)

The next series has as its target CYP2E1 (Rattus norvegicus, UniProt P05182). Conditions: IC50 CYP2E1, single components; RLM 0.2 mg/mL, 15 min, triplicate, mean ± SD.
The next series relates to CYP2C19. The series can be described thus: In vitro cocktail CYP450 activity assay in rat liver microsomes, CYP2C19 (omeprazole probe). Conditions: Sprague-Dawley, rat, pooled rat liver microsomes, pH 7.4, probe omeprazole (1.07 µM, in seven-probe cocktail), IC50 CYP2C19, single components; RLM 0.2 mg/mL, 15 min, triplicate, mean ± SD. The protocol: as §1, §2, §3, §4, §5

The next series has as its system CYP2C9. The series can be described thus: In vitro cocktail CYP450 activity assay in rat liver microsomes, CYP2C9 (tolbutamide probe). To be noted: Sprague-Dawley, rat, pooled rat liver microsomes, pH 7.4, probe tolbutamide (18 µM, in seven-probe cocktail), IC50 CYP2C9, single components; RLM 0.2 mg/mL, 15 min, triplicate, mean ± SD. The protocol: as §1, §2, §3, §4, §5

In another series the test system is CYP2B6. Put plainly: In vitro cocktail CYP450 activity assay in rat liver microsomes, CYP2B6 (bupropion probe). To be noted: RLM 0.2 mg/mL, 15 min, triplicate, mean ± SD; for IC50 at 15 min: Sprague-Dawley, rat, pooled rat liver microsomes, pH 7.4, probe bupropion (90 µM, in seven-probe cocktail), IC50 CYP2B6, single components. The protocol:
as §1, §2, §3, §4, §5

The test system of a further series is CYP3A4. The series can be described thus: in vitro. To be noted: Sprague-Dawley, rat, microsomes, pH 7.4. The method, then: as §1, §2, §3, §4, §5
A further series has as its system CYP2D6. Put plainly: in vitro. Conditions: Sprague-Dawley, rat, microsomes, pH 7.4, IC50 CYP2D6. The method, then: as §1, §2, §3, §4, §5

Values joined by “and” are separate entries in the source; they are usually repeats but may differ in a detail not shown here. Equal entries are not always repeated.

Sequence of CYP2E1 (P05182 whole entry): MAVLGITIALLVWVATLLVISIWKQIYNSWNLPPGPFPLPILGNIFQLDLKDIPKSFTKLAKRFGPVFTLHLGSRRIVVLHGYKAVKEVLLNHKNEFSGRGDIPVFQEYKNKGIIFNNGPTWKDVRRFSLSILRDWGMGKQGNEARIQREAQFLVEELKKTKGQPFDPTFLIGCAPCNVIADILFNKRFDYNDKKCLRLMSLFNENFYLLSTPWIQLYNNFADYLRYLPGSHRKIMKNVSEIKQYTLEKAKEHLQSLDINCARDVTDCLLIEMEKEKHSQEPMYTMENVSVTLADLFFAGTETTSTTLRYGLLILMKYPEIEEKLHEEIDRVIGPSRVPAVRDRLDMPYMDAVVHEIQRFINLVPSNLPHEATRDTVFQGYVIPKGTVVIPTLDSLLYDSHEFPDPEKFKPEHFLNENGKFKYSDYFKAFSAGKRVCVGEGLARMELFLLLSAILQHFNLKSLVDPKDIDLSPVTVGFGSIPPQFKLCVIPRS
Experimental for CYP2E1: For the cocktail assay, the activity is expressed as the percentage of activity remaining comparing with that of a control sample containing no inhibitor. […] All the data were described as mean ± standard deviation (SD). Normality assumptions were tested by the Kolmogorov–Smirnov statistic setting p = 0.10 as the limit for rejection of the null hypothesis of normality. If the distribution of the data was normal with equal variances, a two-sided test was performed at the 5% level of significance. The Welch’s correction was then applied when the underlying variances were not equal. When the assumption of normality must be rejected, the Mann-Whitney test, a non-parametric equivalent of the independent-measures t-test, was used.

Take `O=c1c(O)c(-c2ccc(O)cc2)oc2cc(O)cc(O)c12` [A17, kaempferol]: the IC50 against CYP1A2 was determined as 21.5 ± 4.5 µM; on CYP2E1, 32.5 ± 5.79 µM. The half-inhibitory concentration (IC50) at 15 min in the series on CYP2C19 is 70.4 ± 1.18 µM; in the series on CYP2C9 it was 14.9 ± 4.24 µM; in the series with CYP2B6, more than 200 µM; in the series with CYP3A4 it was 117 ± 6.77 µM; with CYP2D6, 59.2 ± 1.01 µM.
As for `O=c1c(O)c(-c2ccc(O)cc2)oc2cc(O)c(O)c(O)c12` [A18, 6-hydroxykaempferol], the IC50 on CYP1A2 is < 5 µM and 0.12 µM; on CYP2E1 it was < 5 µM and 4.27 µM; in the series on CYP2B6 (read-out: IC50 CYP2B6, single components), 4.42 ± 1.31 µM. Moreover, in the series with CYP2B6, the IC50 at 15 min was less than 5 µM.

The IC50 is the point on the concentration scale where inhibition reaches its midpoint.
